Data reported in patent publication US20230210834A1, “RNA METHYLTRANSFERASE INHIBITOR, SCREENING METHOD THEREFOR, ANTI-CANCER AGENT EFFICACY ASSESSMENT MARKER, AND KIT FOR EFFECTIVELY PREDICTING FTSJ1 INHIBITOR” (National University Corporation Okayama University, priority 2019, published 2023).
Where two headings read alike, the source gives them in different places.

How the values were obtained:
[1] = tested on: polyglutamine luciferase reporter; test: Screening: polyglutamine luciferase reporter assay in NUGC3 cells (luminescence % of DMSO); format: cell-based, human
Description: (§1) Human gastric cancer cell line NUGC3 was cultured in a DMEM medium (high glucose with L-glutamine and phenol red, produced by FUJIFILM Wako Pure Chemical Corporation) containing 10% fetal bovine serum (produced by Thermo Fisher Scientific Inc.) and penicillin-streptomycin (produced by FUJIFILM Wako Pure Chemical Corporation) (this medium is simply referred to below as “DMEM+10% FBS+1×P/S”). Then, the NUGC3 cells were seeded in a 60-mm culture dish (produced by BioLite) so that the cells were 80% confluent after 24 hours. Subsequently, 5 μg of a reporter plasmid and 15 μL of a lipofection reagent (transIT-LT1, produced by Mirus Bio LLC) were mixed in 500 μL of Opti-MEM medium (produced by Thermo Fisher Scientific, Inc.) to form a complex, which was added to the medium in which the NUGC3 cells were cultured in the 60-mm culture dish. For use as the reporter plasmid, 5 μg of a polyglutamine luciferase reporter was introduced (in the polyglutamine luciferase reporter, a Renilla luciferase expressed in the IRES was located as an internal standard downstream of the sequence of a firefly luciferase sequence to which polyglutamine was added). Alternatively, a YAP/TAZ activity reporter was used by simultaneously introducing 3 μg of 8×GTIIC plasmid and 2 μg of a Renilla luciferase reporter as an internal standard. After another 24 hours, the cells were exfoliated with a 0.05 w/v % trypsin-0.53 mmol/l EDTA-4Na solution (produced by FUJIFILM Wako Pure Chemical Corporation), and then seeded in a 96-well plate (produced by BioLite) so that the cells were 80% confluent after 24 hours. Twenty-four hours after seeding in the 96-well plate, the medium in each well was replaced with 100 μL of a medium (DMEM+10% FBS+an antibiotic) containing 10 μM or 5 μM of a compound for evaluation. After another 24 hours, the medium containing the compound was removed, and the 96-well plate was transferred on ice. Each well was washed with 100 μL of phosphate buffer (PBS, produced by FUJIFILM Wako Pure Chemical Corporation). Thereafter, 20 μL of Passive Lysis Buffer (1×) contained in a Dual-Luciferase Reporter Assay System (produced by Promega Corporation) was added. The plate was then gently shaken for 15 minutes at room temperature to lyse the cells. After confirming that the cells were lysed, 10 μL of the lysate was transferred from each well to each corresponding well of a white 96-well plate (produced by Greiner Bio-one). To each well of the white 96-well plate was added 100 μL of a mixture of a Luciferase Assay Buffer II and Luciferase Assay Substrate contained in the Dual-Luciferase Reporter Assay System (produced by Promega Corporation), whereby the luminescence of the firefly luciferase was induced, and the luminescence intensity was detected with a microluminometer (produced by Berthold Japan K.K.). Subsequently, 100 μL of a mixture of Stop & Glo Buffer and Stop & Glo Substrate contained in the Dual-Luciferase Reporter Assay System (produced by Promega Corporation) was added, whereby the luminescence of firefly luciferase was quenched while the luminescence of Renilla luciferase was induced, and the luminescence intensity was detected with a microluminometer (produced by Berthold Japan K.K.) in a manner similar to the above. The ratio of the luminescence intensity of the firefly luciferase and the luminescence intensity of the Renilla luciferase was calculated, and the luminescence intensity (%) of the wells containing each compound was calculated with the luminescence intensity of the well containing DMSO (dimethyl sulfoxide, used as a solvent for the compound liquids) taken as 100%. […] Unless otherwise specified, the measured values in the table represent the results obtained by evaluation with the addition of 10 μM of each compound for evaluation.

[2] = tested on: YAP/TAZ; test: Screening: YAP/TAZ activity reporter (8xGTIIC plasmid) assay in NUGC3 cells (luminescence % of DMSO); format: cell-based, human
Description: as §1

[3] = polyglutamine luciferase reporter, NUGC3 cells, luminescence relative to DMSO, concentration not given
[4] = YAP/TAZ activity reporter (8×GTIIC), NUGC3 cells, luminescence relative to DMSO, concentration not given

Structure (SMILES) | Polyglutamine [1, 3] [%] | 8×GTIIC [2, 4] [%] | Polyglutamine [1] [%] | 8×GTIIC [2] [%]
CC(C)c1cc(C(C)C)c(S(=O)(=O)CCc2ccccc2)c(C(C)C)c1 [PVZF2006] | 41.3 | 58.43 | – | –
CC(C)c1cc(C(C)C)c(S(=O)(=O)NCC2CCCNC2)c(C(C)C)c1 (stereo not drawn) [PVZF2008] | 64.94 | 70.12 | – | –
O=S(=O)(CC1CCCC1)c1ccc2ccccc2c1 [PVZF2010] | 33.13 | 24.49 | – | –
CCCCCCS(=O)(=O)c1ccc2ccccc2c1 [PVZF2011] | 28.85 | 36.2 | – | –
O=S(=O)(CC1CCCCC1)c1ccc2ccccc2c1 [PVZF2012] | 33.76 | 34.08 | – | –
O=S(=O)(CCc1ccccc1)c1ccc2ccccc2c1 [PVZF2014] | 40.32 | 59.08 | – | –
O=S(=O)(CCC1CCCCC1)c1ccc2ccccc2c1 [PVZF2015] | 51.29 | 51.25 | – | –
O=S(=O)(CCCC1CCCCC1)c1ccc2ccccc2c1 [PVZF2017] | 66.66 | 58.91 | – | –
CC1(C)CC(CS(=O)(=O)c2ccc3ccccc3c2)CC(C)(C)C1 [PVZF2018] | 61.19 | 73.29 | – | –
CC(C)(C)c1ccc(S(=O)(=O)CC2CCCC2)cc1 [PVZF2019] | 31.45 | 36.82 | – | –
CCCCCCS(=O)(=O)c1ccc(C(C)(C)C)cc1 [PVZF2020] | 36.76 | 45.04 | – | –
CC(C)(C)c1ccc(S(=O)(=O)CC2CCCCC2)cc1 [PVZF2021] | 32.95 | 44.55 | – | –
CC(C)(C)c1ccc(S(=O)(=O)CCc2ccccc2)cc1 [PVZF2023] | 58.32 | 66.96 | – | –
CC(C)(C)c1ccc(S(=O)(=O)CCC2CCCCC2)cc1 [PVZF2024] | 63.4 | 55.45 | – | –
CC(C)(C)c1ccc(S(=O)(=O)CCCC2CCCCC2)cc1 [PVZF2026] | 31.89 | 34.4 | – | –
O=S(=O)(CC1CCCC1)c1ccc(-c2ccccc2)cc1 [PVZF2028] | 42.32 | 40.24 | – | –
CCCCCCS(=O)(=O)c1ccc(-c2ccccc2)cc1 [PVZF2029] | 49.5 | 49.28 | – | –
O=S(=O)(CC1CCCCC1)c1ccc(-c2ccccc2)cc1 [PVZF2030] | 50.36 | 49.29 | – | –
O=S(=O)(CCc1ccccc1)c1ccc(-c2ccccc2)cc1 [PVZF2032] | 73.08 | 76.99 | – | –
O=S(=O)(CCC1CCCCC1)c1ccc(-c2ccccc2)cc1 [PVZF2033] | 67.7 | 69.36 | – | –
O=S(=O)(NCCC1=CCCCC1)c1ccc(-c2ccccc2)cc1 [PVZF2035, N-(2-(cyclohexy-1-en-1-yl)ethyl)-[1,1′-biphenyl]-4-sulfonamide] | – | – | 58.85 | 71.12
CC1(C)CC(CS(=O)(=O)c2ccc(-c3ccccc3)cc2)CC(C)(C)C1 [PVZF2036] | 79.76 | 70.46 | – | –
CCC(C)(C)c1ccc(S(=O)(=O)CC2CCCC2)cc1 [PVZF2037] | 51.06 | 43.28 | – | –
CCCCCCS(=O)(=O)c1ccc(C(C)(C)CC)cc1 [PVZF2038] | 58.2 | 56.84 | – | –
CCC(C)(C)c1ccc(S(=O)(=O)CC2CCCCC2)cc1 [PVZF2039] | 53.6 | 60 | – | –
CCC(C)(C)c1ccc(S(=O)(=O)CCc2ccccc2)cc1 [PVZF2041] | 78.87 | 79.61 | – | –
CCC(C)(C)c1ccc(S(=O)(=O)CCC2CCCCC2)cc1 [PVZF2042] | 34.02 | 35.98 | – | –

Structure (SMILES) | Polyglutamine [1, 3] [%] | 8×GTIIC [2, 4] [%] | Polyglutamine [1] [%] | 8×GTIIC [2] [%]
CCC(C)(C)c1ccc(S(=O)(=O)CCCC2=CCCCC2)cc1 [PVZF2044] | 45.42 | 55.05 | – | –
CC1(C)CC(CS(=O)(=O)c2ccc(C(C)(C)C)cc2)CC(C)(C)S1 [PVZF2045] | 65.16 | 66.26 | – | –
CCCCCCS(=O)(=O)c1ccccc1 [PVZF2047] | 48.95 | 63.56 | – | –
O=S(=O)(CC1CCCCC1)c1ccccc1 [PVZF2048] | 73.33 | 69.86 | – | –
O=S(=O)(CCc1ccccc1)c1ccccc1 [PVZF2050] | 49.43 | 39.57 | – | –
O=S(=O)(CCC1CCCCC1)c1ccccc1 [PVZF2051] | 38.06 | 35.1 | – | –
O=S(=O)(CC1CCCC1)c1ccc(C2CCCCC2)cc1 [PVZF2064] | 64 | 75.47 | – | –
O=S(=O)(CCc1ccccc1)c1ccc(C2CCCCC2)cc1 [PVZF2068] | 53.21 | 74.24 | – | –
O=S(=O)(CCCC1CCCCC1)c1ccc(C2CCCCC2)cc1 [PVZF2071] | 63.89 | 70.27 | – | –
CC1(C)CC(CS(=O)(=O)c2ccc(C3CCCCC3)cc2)CC(C)(C)S1 [PVZF2072] | 80.1 | 83.58 | – | –
CC(C)c1cc(C(C)C)c(S(=O)(=O)CC(c2ccccc2)c2ccc(-c3ccccc3)cc2)c(C(C)C)c1 (stereo not drawn) [PVZF2083] | 69 | 108.4 | – | –
CC(=O)C1CC(c2cccc(C)c2)CC1c1ccccc1 (stereo not drawn) [PZ163] | 71.16 | 103.2 | – | –
CCc1ccc(C2=CC(C(C)=O)C(c3ccc(CC)c(C)c3)C2)cc1 (stereo not drawn) [PZ173] | 67.61 | 160.5 | – | –
CC(=O)C1CC(c2ccc(C)cc2)CC1c1ccc2ccccc2c1 (stereo not drawn) [PZ177] | 43.89 | 71.59 | – | –
CC(=O)C1C=C(c2ccc(C)cc2)CC1c1ccc2ccccc2c1 (stereo not drawn) [PZ178] | 60.25 | 119.3 | – | –
CC(=O)C1C=C(c2ccccc2)CC1c1ccc2ccccc2c1 (stereo not drawn) [PZ179] | 66.51 | 95.65 | – | –
Cc1ccc(S(=O)(=O)CC2CC(C)(C)CC(C)(C)C2)cc1C(F)(F)F [SA001] | 83.34 | 74.98 | – | –
Cc1cc(C)c(S(=O)(=O)CC2CC(C)(C)CC(C)(C)C2)cc1C [SA002] | 49.58 | 47.03 | – | –
CCCc1cc(C)c(C(C)C)cc1S(=O)(=O)CC1CC(C)(C)CC(C)(C)C1 [SA003] | 37.79 | 46.84 | – | –
CCc1cc(C)c(S(=O)(=O)CC2CC(C)(C)CC(C)(C)C2)cc1C(C)C [SA006] | 37.54 | 40.21 | – | –
Cc1cc(C)c(S(=O)(=O)CC2CC(C)(C)CC(C)(C)C2)cc1C [SA007] | 55.29 | 56.96 | – | –
Cc1cc(C)c(S(=O)(=O)CC2CC(C)(C)CC(C)(C)C2)cc1C [SA008] | 51.03 | 57.06 | – | –
Cc1cc(C)c(S(=O)(=O)CC2CC(C)(C)CC(C)(C)C2)cc1C [SA009] | 73.02 | 80.29 | – | –
CCc1cc(C)c(S(=O)(=O)CC2CC(C)(C)CC(C)(C)C2)cc1C [SA010] | 59.61 | 64.43 | – | –
CCCc1cc(S(=O)(=O)CC2CC(C)(C)CC(C)(C)C2)ccc1C [SA011] | 60.35 | 67.54 | – | –
O=C(CCCCc1ccccc1)C1CCC(CS(=O)(=O)c2ccccc2)CC1 (stereo not drawn) [SA012] | 86.48 | 91.92 | – | –
CC(C)(C)c1cccc(S(=O)(=O)C2CCC(CS(=O)(=O)c3ccccc3)CC2)c1 (stereo not drawn) [SA016] | 43.01 | 53.02 | – | –
